Test results: patent US20110136259A1, “IMMUNOASSAY FOR CROSS-REACTING SUBSTANCES” (LIFE TECHNOLOGIES CORPORATION, priority 2007, published 2011)

Experiments:
[1] = test system: Antibody 10 (clone A29220314P from BiosPacific); experiment: Cross reactivity on anti-cortisol antibody microarray, antibody 10; format: binding; settings: for Percent cross reactivity, antibody 10: determined by 2000 ng/mL sample; for % cross reactivity, antibody 10: from slopes of ([apparent cortisol] vs [cross reactant])
Text: (§1) The independent variables, these are x1 and x2 in the model are the various concentrations levels, where x1 is the concentration level of cortisol and x2 is the concentration level of the cross-reactant (in this case either 6AMP or prednisolone). The dependent variable, i.e. the variable that we are trying to predict, is the “apparent” cortisol concentration, which is estimated from the concentration-signal 4 parameter logistic regression model. […] These equations are given by,
(§2) In terms of the model β1 is interpreted as the amount that the “apparent” cortisol is increase per ng/ml increase of cortisol and similarly β2 is interpreted as the amount that the “apparent” cortisol is increased per ng/ml increase of cross-reactant. Finally to estimate the percent cross action it is given by:
(§3) The antibody concentrations were 125 ug/mL in buffered solutions comprising phosphate-buffered saline (PBS) and 1× Whatman Protein Arraying Buffer. The antibody solutions were applied to the slide surface using a Scienion sciflexarryer S5 piezo printer. The average spot sizes were 150 um. The antibodies within a sub array were printed in replicates of five spots, and each slide contained twelve sub arrays arranged in two columns of six. The relative spacing of the sub arrays was nine millimeters, equivalent to the spacing of a 96-well micro titer plate.
(§4) The micro-array slides were assembled with a superstructure that creates individual wells that surround the sub array (Slide Incubation Chambers, Whatman). The slides were blocked for one hour with micro array blocking buffer (VWR) and then washed with TRIS-buffered saline with Tween-20 (TBST). Cortisol-containing samples or calibrators were diluted 1 to 20 into a buffered solution that contained the following: TBST, 0.1% SDS, 3.3 nM cortisol 3-CMO Alexa Fluor 555, and 3.3 nM cortisol 21-HS Alexa Fluor 647. One-hundred micro liters of the assay mixture was applied to an individual well on the micro-array slide, and the assay was allowed to proceed for one hour at room temperature in the dark with gentle shaking on a micro-titer plate shaker. The assay mixture was removed, and the slides were washed with TBST, water, and then dried by spinning in a centrifuge. The intensities of fluorescence associated with each spot was quantified using a micro-array reader such as an Axon 4000B or 4200AL. The spot intensities for the calibrators were used to generate a standard curve by fitting the data to a four-parameter logistic model. The concentrations of the cortisol-containing patient samples or synthetic samples were interpolated using the logistic-fit equation.
(§5) Subsequently, several cortisol antibodies were synthesized and relative cross reactivities were determined for the synthetic glucocorticoids obtained via the same described the Beckmann system (Tables 4 & 5). Cortisol antibodies should have specificity to distinguish the differences in the A ring of the steroid molecules shown below.

[2] = test system: antibody 17; experiment: Cross reactivity on anti-cortisol antibody microarray, antibody 17; format: binding; settings: for Percent cross reactivity, antibody 17: determined by 2000 ng/mL sample; for % cross reactivity, antibody 17: from slopes of ([apparent cortisol] vs [cross reactant])
Text: (§6) This model is used to estimate the cross-reaction percentage. The independent variables, these are x1 and x2 in the model are the various concentrations levels, where x1 is the concentration level of cortisol and x2 is the concentration level of the cross-reactant (in this case either 6AMP or prednisolone). The dependent variable, i.e. the variable that we are trying to predict, is the “apparent” cortisol concentration, which is estimated from the concentration-signal 4 parameter logistic regression model. We fit this model using standard multiple linear regression methods to estimate β1 and β2. These equations are given by,
as §2, §3, §4, §5

[3] = test system: Antibody 9 (clone F4P1A3 from EMD Biosciences); experiment: Cross reactivity on anti-cortisol antibody microarray, antibody 9; format: binding; settings: for Percent cross reactivity, antibody 9: determined by 2000 ng/mL sample; for % cross reactivity, antibody 9: from slopes of ([apparent cortisol] vs [cross reactant])
Text: as §1, §2, §3, §4, §5

[4] = test system: Antibody 7 (clone XM210 from Abcam); experiment: Cross reactivity on anti-cortisol antibody microarray, antibody 7; format: binding; settings: for Percent cross reactivity, antibody 7: determined by 2000 ng/mL sample; for % cross reactivity, antibody 7: from slopes of ([apparent cortisol] vs [cross reactant])
Text: as §1, §2, §3
as §4, with “equation. […]” for “equation.”

[5] = test system: Beckmann Access (commercial cortisol immunoassay); experiment: Synthetic glucocorticoid cross reactivity in Beckman Access cortisol immunoassay; format: binding; set-up: Access Cortisol Value: unit: ng/mL; settings: for Access Cortisol Value: Method 1: all synthetics present at 2000 ng/mL, apparent cortisol read by Beckmann Access; for Percent cross reactivity, Access: determined by 2000 ng/mL sample; for % Reactivity (Method 1): synthetic present at 2000 ng/mL, (cortisol value)/(concentration of analyte) x 100%; for % Reactivity (Method 2): serial dilutions 1:2, 1:4, 1:8 and 1:16, linear analysis evaluation
Protocol: Initial synthetic glucocorticoid antibody cross reactivity data included LC-MS/MS analysis of patient samples was followed by analysis via the Beckman immunoassay system, and relative cross reactivities were calculated for each of the synthetic glucocorticoids of interest. Cross reactivities were also calculated based on a linearity study of each of the major cross reactive synthetic glucocorticoids to ensure that the values obtained for each were viable. (Table 1).
(§7) LC-MS/MS analysis of patient samples was followed by analysis using the Beckman Access (commercial assay), and relative cross reactivities were calculated for each of the synthetic glucocorticoids of interest. Synthetic positive patient samples were then mimicked in stripped serum for cortisol, cortisone and exogenous synthetic glucocorticoids. […] The linear relationship for these systems was examined and illustrated.

[6] = test system: antibody 13; experiment: Cross reactivity on anti-cortisol antibody microarray, antibody 13; format: binding; settings: for Percent cross reactivity, antibody 13: determined by 2000 ng/mL sample; for % cross reactivity, antibody 13: from slopes of ([apparent cortisol] vs [cross reactant])
Text: as §6, §2, §3, §4, §5

[7] = LC-MS/MS analysis of synthetic-positive patient samples; format: in vivo; settings: population of positive patient samples
Text: In the present method mass spectrometric methods were used to determine actual analyte levels in clinical patient populations. Some of these samples were subjected to the current immunoassay systems and the interference relationship was established. After identifying the most commonly present exogenous drugs present in the samples, this information was used toward establishing an assay, free from the limitations of the mass spec. deconvolution, that gives an accurate depiction of the analyte, such as cortisol, levels in a patient sample.
A population was drawn of positive synthetic patient samples once cross reactivities were determined for individual steroids (Table 2).
as §7

[8] = test system: antibody ECB; experiment: Cross reactivity on anti-cortisol antibody microarray, antibody ECB; format: binding; settings: from slopes of ([apparent cortisol] vs [cross reactant])
Text: as §6
(§8) In terms of the model β1 is interpreted as the amount that the “apparent” cortisol is increase per ng/ml increase of cortisol and similarly β2 is interpreted as the amount that the “apparent” cortisol is increased per ng/ml increase of cross-reactant. […]
(§9) The micro-array slides were assembled with a superstructure that creates individual wells that surround the sub array (Slide Incubation Chambers, Whatman). […] The intensities of fluorescence associated with each spot was quantified using a micro-array reader such as an Axon 4000B or 4200AL. […]
(§10) Subsequently, several cortisol antibodies were synthesized and relative cross reactivities were determined for the synthetic glucocorticoids obtained via the same described the Beckmann system (Tables 4 & 5). […]

[9] = test system: antibody 21509; experiment: Cross reactivity on anti-cortisol antibody microarray, antibody 21509; format: binding; settings: from slopes of ([apparent cortisol] vs [cross reactant])
Text: as §6, §8, §9, §10

| SMILES | Range of steroid concentration in synthetic positive patient samples [7] [ng/mL] | Percent cross reactivity, antibody 10 [1] | Percent cross reactivity, antibody 17 [2] [%] | Percent cross reactivity, antibody 9 [3] [%] | Percent cross reactivity, antibody 7 [4] [%] | Access Cortisol Value [5] | Percent cross reactivity, Access [5] [%] | % Reactivity (Method 1) [5] [%] | Percent cross reactivity, antibody 13 [6] [%] | % cross reactivity, antibody 10 [1] [%] | % cross reactivity, antibody 17 [2] [%] | % cross reactivity, antibody 9 [3] [%] | % cross reactivity, antibody 7 [4] [%] | % Reactivity (Method 2) [5] [%] | % cross reactivity, antibody 13 [6] [%] | % cross reactivity, antibody ECB [8] [%] | % cross reactivity, antibody 21509 [9] [%] |
| --- | --- | --- | --- | --- | --- | --- | --- | --- | --- | --- | --- | --- | --- | --- | --- | --- | --- |
| CC(=O)[C@@]1(O)CC[C@H]2[C@@H]3C[C@H](C)C4=CC(=O)C=C[C@]4(C)[C@@]3(F)[C@@H](O)C[C@@]21C [SYN-8, Fluorometholone] |  | 6% | 0 | 0 | 0 | 0.8 | 0 | 0.04 | 0 |  |  |  |  |  |  |  |  |
| CC1(C)O[C@@H]2C[C@H]3[C@@H]4CCC5=CC(=O)C=C[C@]5(C)[C@@]4(F)[C@@H](O)C[C@]3(C)[C@]2(C(=O)CO)O1 [SYN-3, Triamcinolone acetonide] | 0.3 to 2.3 |  |  |  |  |  |  |  |  |  |  |  |  |  |  |  |  |
| C[C@]12C=CC(=O)C=C1CC[C@H]1[C@@H]3C[C@@H](O)[C@](O)(C(=O)CO)[C@@]3(C)C[C@H](O)[C@@]12F [SYN-4, Triamcinolone] |  | 0% | 0 | 1 | 0 | 1.1 | 0 | 0.055 | 0 |  |  |  |  |  |  |  |  |
| C[C@]12CCC(=O)C=C1CC[C@@H]1[C@@H]2C(=O)C[C@@]2(C)[C@H]1CC[C@]2(O)C(=O)CO [SYN-6, Cortisone] |  | 0% | 11 | 13 | 1 | 94 | 5 | 4.7 | 1 | <1 | 13 | 15 | 1 | 4.5 | 1 |  |  |

Now from value to compound, other results behind:

| Range of steroid concentration in synthetic positive patient samples [7] [ng/mL] | SMILES | Percent cross reactivity, antibody 10 [1] | Percent cross reactivity, antibody 17 [2] [%] | Percent cross reactivity, antibody 9 [3] [%] | Percent cross reactivity, antibody 7 [4] [%] | Access Cortisol Value [5] | Percent cross reactivity, Access [5] [%] | % Reactivity (Method 1) [5] [%] | Percent cross reactivity, antibody 13 [6] [%] | % cross reactivity, antibody 10 [1] [%] | % cross reactivity, antibody 17 [2] [%] | % cross reactivity, antibody 9 [3] [%] | % cross reactivity, antibody 7 [4] [%] | % Reactivity (Method 2) [5] [%] | % cross reactivity, antibody 13 [6] [%] | % cross reactivity, antibody ECB [8] [%] | % cross reactivity, antibody 21509 [9] [%] |
| --- | --- | --- | --- | --- | --- | --- | --- | --- | --- | --- | --- | --- | --- | --- | --- | --- | --- |
| 1.0 to 14.0 | C[C@@H]1C[C@H]2[C@@H]3CCC4=CC(=O)C=C[C@]4(C)[C@@]3(F)[C@@H](O)C[C@]2(C)[C@@]1(O)C(=O)CO [SYN-10, Dexamethasone] |  |  |  |  |  |  |  |  |  |  |  |  |  |  |  |  |
| 0.6 to 640 | C[C@]12C=CC(=O)C=C1CC[C@@H]1[C@@H]2[C@@H](O)C[C@@]2(C)[C@H]1CC[C@]2(O)C(=O)CO [SYN-7, Prednisolone] | 68% | 14 | 15 | 5 | 420.7 | 21 | 21.035 | 4 | 133 | 35 | 37 | 5 | 20.8 | 5 |  |  |
| 1.9 to 72 | C[C@]12C=CC(=O)C=C1CC[C@@H]1[C@@H]2C(=O)C[C@@]2(C)[C@H]1CC[C@]2(O)C(=O)CO [SYN-2, Prednisone] | 0% | 20 | 21 | 1 | 50.8 | 3 | 2.54 | 1 | 1 |  | 26 | <1 | 2.2 |  | 1 | <1 |
| 1.7 to 130 | C[C@H]1C[C@@H]2[C@H]([C@@H](O)C[C@@]3(C)[C@H]2CC[C@]3(O)C(=O)CO)[C@@]2(C)C=CC(=O)C=C12 [SYN-1, 6-a-methyl prednisolone] | high | 3 | 2 | 9 | 34.4 | 2 | 1.72 | 10 | 109 | 1 | 2 | 7 | 1.4 | 6 |  |  |
